Experimental data: PubChem BioAssay AID2060887 (Molecular Pharmacology Branch, DTP, NCI, 2025)

System: 782815-120-R-J1-PDC complex spheroid viability
Experiment: Anticancer human tumor 782815-120-R-J1-PDC patient-derived colon adenocarcinoma cell line growth inhibition [RAS]
Conditions: for IC50: curve of first compound; for viability, T/C: stronger effect = lower value
Procedure, shortened: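 Agents were tested in combination matrices in half-log decrements from a top concentration at or near clinical Cmax (10 microM if undetermined). Targets were multi-cell spheroids of tumour lines plus HUVEC and MSC stromal cells.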

[1] = second compound 0.000949 µM, first compound 0.0316 µM
[2] = second compound 0.000949 µM, first compound 0.1 µM
[3] = second compound 0.000949 µM, first compound 0.316 µM
[4] = second compound 0.000949 µM, first compound 1 µM
[5] = second compound 0.000949 µM, first compound 3.16 µM
[6] = second compound 0.000949 µM, first compound 10 µM
[7] = second compound 0.003 µM, first compound 0.0316 µM
[8] = second compound 0.003 µM, first compound 0.1 µM
[9] = second compound 0.003 µM, first compound 0.316 µM
[10] = second compound 0.003 µM, first compound 1 µM
[11] = second compound 0.003 µM, first compound 3.16 µM
[12] = second compound 0.003 µM, first compound 10 µM
[13] = second compound 0.00949 µM, first compound 0.0316 µM
[14] = second compound 0.00949 µM, first compound 0.1 µM
[15] = second compound 0.00949 µM, first compound 0.316 µM
[16] = second compound 0.00949 µM, first compound 1 µM
[17] = second compound 0.00949 µM, first compound 3.16 µM
[18] = second compound 0.00949 µM, first compound 10 µM
[19] = second compound 0.03 µM, first compound 0.0316 µM
[20] = second compound 0.03 µM, first compound 0.1 µM
[21] = second compound 0.03 µM, first compound 0.316 µM
[22] = second compound 0.03 µM, first compound 1 µM
[23] = second compound 0.03 µM, first compound 3.16 µM
[24] = second compound 0.03 µM, first compound 10 µM
[25] = second compound 0.0949 µM, first compound 0.0316 µM
[26] = second compound 0.0949 µM, first compound 0.1 µM
[27] = second compound 0.0949 µM, first compound 0.316 µM
[28] = second compound 0.0949 µM, first compound 1 µM
[29] = second compound 0.0949 µM, first compound 3.16 µM
[30] = second compound 0.0949 µM, first compound 10 µM
[31] = second compound 0.3 µM, first compound 0.0316 µM
[32] = second compound 0.3 µM, first compound 0.1 µM
[33] = second compound 0.3 µM, first compound 0.316 µM
[34] = second compound 0.3 µM, first compound 1 µM
[35] = second compound 0.3 µM, first compound 3.16 µM
[36] = second compound 0.3 µM, first compound 10 µM
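Note: spheroids exposed to compounds for 7 days before reading.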
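Throughout, for viability, T/C: 100% = DMSO vehicle control viability.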

SMILES: Cc1nc(N2CCC3(CC2)COC(C)C3N)c(CO)nc1Sc1ccnc(N)c1Cl (stereo unspecified) + CCn1c(-c2cccnc2C(C)OC)c2c3cc(ccc31)N1CCOC(CC(NC(=O)C(C(C)C)N(C)C(=O)C3(F)CCN(C(=O)C#CC(C)(C)N(C)C)CC3)C(=O)N3CCCC(N3)C(=O)OCC(C)(C)C2)C1
- IC50 (second compound 0.000949 µM): > 10 µM
- IC50 (second compound 0.003 µM): > 10 µM
- IC50 (second compound 0.00949 µM): > 10 µM
- IC50 (second compound 0.03 µM): > 10 µM
- IC50 (second compound 0.0949 µM): > 10 µM
- IC50 (second compound 0.3 µM): > 10 µM
- viability, T/C [1]: 108%
- viability, T/C [2]: 88%
- viability, T/C [3]: 99.2%
- viability, T/C [4]: 94.2%
- viability, T/C [5]: 98.6%
- viability, T/C [6]: 93.6%
- viability, T/C [7]: 93.1%
- viability, T/C [8]: 95.5%
- viability, T/C [9]: 104%
- viability, T/C [10]: 94.5%
- viability, T/C [11]: 96%
- viability, T/C [12]: 95.7%
- viability, T/C [13]: 95.2%
- viability, T/C [14]: 95.7%
- viability, T/C [15]: 91.4%
- viability, T/C [16]: 98.9%
- viability, T/C [17]: 111%
- viability, T/C [18]: 94%
- viability, T/C [19]: 101%
- viability, T/C [20]: 92.6%
- viability, T/C [21]: 92.2%
- viability, T/C [22]: 98.6%
- viability, T/C [23]: 102%
- viability, T/C [24]: 87.7%
- viability, T/C [25]: 94.5%
- viability, T/C [26]: 99.6%
- viability, T/C [27]: 103%
- viability, T/C [28]: 95.7%
- viability, T/C [29]: 101%
- viability, T/C [30]: 90.1%
- viability, T/C [31]: 93.3%
- viability, T/C [32]: 90.1%
- viability, T/C [33]: 87.5%
- viability, T/C [34]: 96%
- viability, T/C [35]: 101%
- viability, T/C [36]: 91%

SMILES: NC1c2ccccc2OC12CCN(c1cnc3c(N4CCCc5ncccc54)n[nH]c3n1)CC2 (stereo unspecified) + CCn1c(-c2cccnc2C(C)OC)c2c3cc(ccc31)N1CCOC(CC(NC(=O)C(C(C)C)N(C)C(=O)C3(F)CCN(C(=O)C#CC(C)(C)N(C)C)CC3)C(=O)N3CCCC(N3)C(=O)OCC(C)(C)C2)C1
- IC50 (second compound 0.000949 µM): > 10 µM
- IC50 (second compound 0.003 µM): > 10 µM
- IC50 (second compound 0.00949 µM): > 10 µM
- IC50 (second compound 0.03 µM): > 10 µM
- IC50 (second compound 0.0949 µM): > 10 µM
- IC50 (second compound 0.3 µM): > 10 µM
- viability, T/C [1]: 97.9%
- viability, T/C [2]: 105%
- viability, T/C [3]: 108%
- viability, T/C [4]: 105%
- viability, T/C [5]: 93.9%
- viability, T/C [6]: 77.7%
- viability, T/C [7]: 91.5%
- viability, T/C [8]: 104%
- viability, T/C [9]: 101%
- viability, T/C [10]: 89.4%
- viability, T/C [11]: 102%
- viability, T/C [12]: 85.8%
- viability, T/C [13]: 96.2%
- viability, T/C [14]: 109%
- viability, T/C [15]: 91.5%
- viability, T/C [16]: 93.2%
- viability, T/C [17]: 100%
- viability, T/C [18]: 76.7%
- viability, T/C [19]: 88.5%
- viability, T/C [20]: 106%
- viability, T/C [21]: 95.1%
- viability, T/C [22]: 98.5%
- viability, T/C [23]: 91.2%
- viability, T/C [24]: 80.3%
- viability, T/C [25]: 89.1%
- viability, T/C [26]: 93%
- viability, T/C [27]: 92.6%
- viability, T/C [28]: 99.7%
- viability, T/C [29]: 103%
- viability, T/C [30]: 76.5%
- viability, T/C [31]: 90.8%
- viability, T/C [32]: 91.6%
- viability, T/C [33]: 85.8%
- viability, T/C [34]: 92.5%
- viability, T/C [35]: 88.6%
- viability, T/C [36]: 73.4%

SMILES: Nc1ccn(C2OC(CO)C(O)C2(F)F)c(=O)n1 (stereo unspecified) + CCn1c(-c2cccnc2C(C)OC)c2c3cc(ccc31)N1CCOC(CC(NC(=O)C(C(C)C)N(C)C(=O)C3(F)CCN(C(=O)C#CC(C)(C)N(C)C)CC3)C(=O)N3CCCC(N3)C(=O)OCC(C)(C)C2)C1
- IC50 (second compound 0.000949 µM): 0.0293 µM
- IC50 (second compound 0.003 µM): 0.0424 µM
- IC50 (second compound 0.00949 µM): 0.0315 µM
- IC50 (second compound 0.03 µM): 0.038 µM
- IC50 (second compound 0.0949 µM): 0.05 µM
- IC50 (second compound 0.3 µM): 0.0476 µM
- viability, T/C (second compound 0.000949 µM, first compound 0.00316 µM): 89.4%
- viability, T/C (second compound 0.000949 µM, first compound 0.01 µM): 64.7%
- viability, T/C [1]: 50.6%
- viability, T/C [2]: 37.2%
- viability, T/C [3]: 23.5%
- viability, T/C [4]: 23.5%
- viability, T/C (second compound 0.003 µM, first compound 0.00316 µM): 95%
- viability, T/C (second compound 0.003 µM, first compound 0.01 µM): 71.3%
- viability, T/C [7]: 59.3%
- viability, T/C [8]: 34.6%
- viability, T/C [9]: 27.3%
- viability, T/C [10]: 24.5%
- viability, T/C (second compound 0.00949 µM, first compound 0.00316 µM): 96.2%
- viability, T/C (second compound 0.00949 µM, first compound 0.01 µM): 71.8%
- viability, T/C [13]: 50.8%
- viability, T/C [14]: 34.7%
- viability, T/C [15]: 29.1%
- viability, T/C [16]: 25.7%
- viability, T/C (second compound 0.03 µM, first compound 0.00316 µM): 85.4%
- viability, T/C (second compound 0.03 µM, first compound 0.01 µM): 75.7%
- viability, T/C [19]: 53.2%
- viability, T/C [20]: 33.6%
- viability, T/C [21]: 27.2%
- viability, T/C [22]: 25.7%
- viability, T/C (second compound 0.0949 µM, first compound 0.00316 µM): 83.6%
- viability, T/C (second compound 0.0949 µM, first compound 0.01 µM): 71.8%
- viability, T/C [25]: 57.9%
- viability, T/C [26]: 38.7%
- viability, T/C [27]: 28.1%
- viability, T/C [28]: 20.1%
- viability, T/C (second compound 0.3 µM, first compound 0.00316 µM): 85.3%
- viability, T/C (second compound 0.3 µM, first compound 0.01 µM): 71.2%
- viability, T/C [31]: 58.4%
- viability, T/C [32]: 38.5%
- viability, T/C [33]: 24.2%
- viability, T/C [34]: 22.1%
